Assay results: paper PMC11036396 (2024)
Values belong to the compound of their own block, whether it stands above or below them.

Experiments:
[1] = system: Trp aptamer (Cy5-labelled, Trp aptamer sensor) (DNA, aptamer) AGCACGTTGGTTAGGTCAGGTTTGGGTTTCGTGC; experiment: strand-displacement fluorescence; conditions: 2.7 mM KCl, 5 mM MgCl2, 500 mM NaCl
[2] = system: Trp aptamer (Cy5-labelled, Trp aptamer sensor) (DNA, aptamer) AGCACGTTGGTTAGGTCAGGTTTGGGTTTCGTGC; experiment: strand-displacement fluorescence titration (Langmuir fit); conditions: 2.7 mM KCl, 5 mM MgCl2, 500 mM NaCl; TAB pH 7.4, 25 °C; displaces CS-10-BHQ2 quencher strand; 0.5 μM aptamer, 1.25 μM CS-10; apparent
[3] = TAB pH 7.4, displaces CS-10-BHQ2 quencher strand, distinguished from its precursor

SMILES: COc1ccc2[nH]cc(C[C@H](N)C(=O)O)c2c1
binding [1, 3]: yes

SMILES: N[C@H](Cc1c[nH]c2ccccc12)C(=O)O
binding ([1]; TAB pH 7.4, 25 °C, displaces CS-10-BHQ2 quencher strand, 5 mM compound): yes

More lines, now with the values ahead:

binding [1, 3]: yes
SMILES: N[C@@H](Cc1c[nH]c2ccc(F)cc12)C(=O)O

Ksens [2]: 3.3 [2.8–4.6, 95% credible region] mM
SMILES: N[C@@H](Cc1c[nH]c2ccccc12)C(=O)O

binding ([1]; TAB pH 7.4, 25 °C, CS-10-BHQ2 quencher strand, highest concentration 5 mM): no
SMILES: N[C@@H](Cc1ccccc1)C(=O)O
